Test results: ChEMBL document CHEMBL3046007, “Isonicotinic acid hydrazide derivatives: synthesis, antimicrobial activity, and QSAR studies” (Med Chem Res, 2012)
Converted amounts (≈) assume the structure as drawn.

Key:
[1] = Cytotoxicity against Homo sapiens (human) MT4 cells; type: cell-based
Escherichia coli = test: Antimicrobial activity against Escherichia coli after 24 hr by serial dilution method; type: functional
Staphylococcus aureus = test: Antimicrobial activity against Staphylococcus aureus after 24 hr by serial dilution method; type: functional
Bacillus subtilis = test: Antimicrobial activity against Bacillus subtilis after 24 hr by serial dilution method; type: functional
Aspergillus niger = test: Antimicrobial activity against Aspergillus niger after 7 days by serial dilution method; type: functional
Candida albicans = test: Antimicrobial activity against Candida albicans after 48 hr by serial dilution method; type: functional
[2] = Cytotoxicity against Chlorocebus aethiops (African green monkey) Vero cells assessed as alteration in cell morphology; type: cell-based; conditions: chlorocebus sabaeus
Punta Toro virus = test: Antiviral activity against Punta Toro virus infected Vero cells assessed as inhibition of virus-induced cytopathicity; type: functional, organism-based
Coxsackievirus B4 [3] = test: Antiviral activity against Human coxsackievirus B4 infected Vero cells assessed as inhibition of virus-induced cytopathicity; type: functional, organism-based; conditions: Enterovirus B
Sindbis virus = test: Antiviral activity against Sindbis virus infected Vero cells assessed as inhibition of virus-induced cytopathicity; type: functional, organism-based
[4] = test system: Mammalian orthoreovirus 1; test: Antiviral activity against Mammalian orthoreovirus 1 infected Vero cells assessed as inhibition of virus-induced cytopathicity; type: functional, organism-based; conditions: Mammalian orthoreovirus 1, Vero
Human respirovirus 3 = test: Antiviral activity against Human parainfluenza virus 3 infected Vero cells assessed as inhibition of virus-induced cytopathicity; type: functional, organism-based; conditions: Human respirovirus 3, Vero
[5] = test system: Respiratory syncytial virus; test: Antiviral activity against Respiratory syncytial virus infected human HeLa cells assessed as inhibition of virus-induced cytopathicity; type: functional, organism-based
Coxsackievirus B4 [6] = test: Antiviral activity against Human coxsackievirus B4 infected human HeLa cells assessed as inhibition of virus-induced cytopathicity; type: functional, organism-based; conditions: Enterovirus B
[7] = test system: Vesicular stomatitis virus; test: Antiviral activity against Vesicular stomatitis virus infected human HeLa cells assessed as inhibition of virus-induced cytopathicity; type: functional, organism-based
[8] = Cytotoxicity against Homo sapiens (human) HeLa cells; type: cell-based
[9] = Cytotoxicity against Homo sapiens (human) HEL cells; type: cell-based
Human alphaherpesvirus 1 [10] = test: Antiviral activity against TK(-) aciclovir-resistant Human herpesvirus 1 strain KOS infected in human HEL cells assessed as inhibition of virus-induced cytopathicity; type: functional, organism-based; conditions: Human alphaherpesvirus 1, KOS
Vaccinia virus = test: Antiviral activity against Vaccinia virus infected human HEL cells assessed as inhibition of virus-induced cytopathicity; type: functional, organism-based; conditions: Orthopoxvirus vaccinia
Human alphaherpesvirus 2 = test: Antiviral activity against Human herpesvirus 2 strain G infected human HEL cells assessed as inhibition of virus-induced cytopathicity; type: functional, organism-based; conditions: Human alphaherpesvirus 2, strain G
Human alphaherpesvirus 1 [11] = test: Antiviral activity against Human herpesvirus 1 strain KOS infected in human HEL cells assessed as inhibition of virus-induced cytopathicity; type: functional, organism-based; conditions: Human alphaherpesvirus 1, KOS
[12] = test system: Human immunodeficiency virus 2; test: Antiviral activity against Human immunodeficiency virus type 2 (ISOLATE ROD) infected human MT4 cells assessed as inhibition of virus-induced cytopathicity; type: functional, organism-based; conditions: Human immunodeficiency virus 2, ISOLATE ROD
[13] = test system: Human immunodeficiency virus 1; test: Antiviral activity against Human immunodeficiency virus 1 IIIB infected human MT4 cells assessed as inhibition of virus-induced cytopathicity; type: functional, organism-based

Row | Structure (SMILES) | CC50 [1] [µg/mL] | -logMIC (Escherichia coli) | -logMIC (Staphylococcus aureus) | -logMIC (Bacillus subtilis) | -logMIC (Aspergillus niger) | -logMIC (Candida albicans) | EC50 [12] [µg/mL] | EC50 [13] [µg/mL] | further results
1 | Cc1cn([C@H]2C[C@H](N=[N+]=[N-])[C@@H](CO)O2)c(=O)[nH]c1=O [ZIDOVUDINE] | > 25 | – | – | – | – | – | – | – | –
2 | CCn1cc(C(=O)O)c(=O)c2cc(F)c(N3CCNCC3)cc21 [NORFLOXACIN] | – | 2.61 | 2.61 | 2.61 | – | – | – | – | –
3 | O=C(c1ccccc1)N(/N=C/c1ccccc1O)C(=O)c1ccncc1 | – | 2.44 | 1.84 | 2.44 | 2.44 | 3.04 | – | – | –
4 | CSc1ccc(/C=N/N(C(=O)c2ccccc2)C(=O)c2ccncc2)cc1 | 69 (≈ 184 µM) | 2.48 | 2.18 | 2.18 | 2.48 | 2.78 | > 69 | > 69 | MCC [2]: ≥ 100 µg/mL; EC50 (Punta Toro virus): > 100 µg/mL; EC50 (Coxsackievirus B4 [3]): 9 µg/mL (≈ 24 µM); EC50 (Sindbis virus): > 100 µg/mL; EC50 [4]: > 100 µg/mL; EC50 (Human respirovirus 3): > 100 µg/mL; EC50 [5]: > 100 µg/mL; EC50 (Coxsackievirus B4 [6]): > 100 µg/mL; EC50 [7]: > 100 µg/mL; MCC [8]: > 100 µg/mL; MCC [9]: > 100 µg/mL; EC50 (Human alphaherpesvirus 1 [10]): > 100 µg/mL; EC50 (Vaccinia virus): > 100 µg/mL; EC50 (Human alphaherpesvirus 2): > 100 µg/mL; EC50 (Human alphaherpesvirus 1 [11]): > 100 µg/mL
5 | CC(Cl)C(=O)NNC(=O)c1ccncc1 (centres undefined) | 77.5 (≈ 340 µM) | 2.26 | 2.26 | 1.96 | 2.26 | 2.26 | > 77.5 | > 77.5 | –
6 | Cc1ccnc2c1NC(=O)c1cccnc1N2C1CC1 [NEVIRAPINE] | > 4 | – | – | – | – | – | > 4 | – | –
7 | NNC(=O)c1ccncc1 [ISONIAZID] | – | 1.74 | 2.04 | 1.74 | 2.04 | 2.34 | – | – | –
8 | CCOc1cc(/C=N/NC(=O)c2ccncc2)ccc1O | 102 (≈ 358 µM) | 2.36 | 2.06 | 2.06 | 2.36 | 2.36 | > 102 | > 102 | MCC [2]: > 100 µg/mL; EC50 (Punta Toro virus): > 100 µg/mL; EC50 (Coxsackievirus B4 [3]): > 100 µg/mL; EC50 (Sindbis virus): > 100 µg/mL; EC50 [4]: > 100 µg/mL; EC50 (Human respirovirus 3): > 100 µg/mL; EC50 [5]: > 100 µg/mL; EC50 (Coxsackievirus B4 [6]): > 100 µg/mL; EC50 [7]: > 100 µg/mL; MCC [8]: > 100 µg/mL; MCC [9]: > 100 µg/mL; EC50 (Human alphaherpesvirus 1 [10]): > 100 µg/mL; EC50 (Vaccinia virus): > 100 µg/mL; EC50 (Human alphaherpesvirus 2): > 100 µg/mL; EC50 (Human alphaherpesvirus 1 [11]): > 100 µg/mL
9 | COc1cccc(OC)c1/C=N/N(C(=O)c1ccccc1)C(=O)c1ccncc1 | 12 (≈ 30.8 µM) | 2.49 | 2.49 | 2.49 | 2.49 | 3.1 | > 12 | > 12 | MCC [2]: 100 µg/mL; EC50 (Punta Toro virus): > 20 µg/mL; EC50 (Coxsackievirus B4 [3]): > 20 µg/mL; EC50 (Sindbis virus): > 20 µg/mL; EC50 [4]: > 20 µg/mL; EC50 (Human respirovirus 3): > 20 µg/mL; EC50 [5]: > 4 µg/mL; EC50 (Coxsackievirus B4 [6]): > 4 µg/mL; EC50 [7]: > 4 µg/mL; MCC [8]: 20 µg/mL; MCC [9]: > 100 µg/mL; EC50 (Human alphaherpesvirus 1 [10]): > 100 µg/mL; EC50 (Vaccinia virus): > 100 µg/mL; EC50 (Human alphaherpesvirus 2): > 100 µg/mL; EC50 (Human alphaherpesvirus 1 [11]): > 100 µg/mL
10 | O=C(NNC(=O)c1ccc(Cl)cc1)c1ccncc1 | > 120 | 1.74 | 2.34 | 2.34 | 1.74 | 2.64 | > 120 | > 120 | –
11 | OC(Cn1cncn1)(Cn1cncn1)c1ccc(F)cc1F [FLUCONAZOLE] | – | – | – | – | 2.64 | 2.64 | – | – | –
12 | O=C(N/N=C/c1ccccc1O)c1ccncc1 [SALINAZID] | 2.52 (≈ 10.4 µM) | 2.29 | 1.98 | 1.98 | 2.29 | 2.29 | > 2.52 | > 2.52 | –
13 | O=C(NNC(=O)c1cc([N+](=O)[O-])ccc1Cl)c1ccncc1 | 116 (≈ 361 µM) | 2.11 | 2.11 | 2.11 | 2.41 | 2.41 | > 116 | > 116 | –
